“Also recorded” adds a separate entry of the source.
Assays:
[1] = tested on: adenosine receptors; settings: CD73 KO mice made septic by CLP; compared with wild-type mice; cited from earlier work
[2] = tested on: C57BL/6J mice made septic by cecal ligation and puncture (CLP); assay: Survival after sepsis induced by cecal ligation and puncture (CLP); type: in vivo, mouse; settings: murine model of septic shock induced by cecal ligation and puncture
Protocol: In this analysis, CD39 KO mice, mice administered a CD39 blocker (sodium polyoxotungstate) or mice administered an apyrase (potato apyrase) were made septic by cecal ligation and puncture (CLP) and survival after CLP was recorded for 7 days. In addition, the immune status of the mice was assessed by measuring cytokine levels from blood and peritoneal lavage fluid. […] Thus, ectonucleotidase manipulation is therapeutically useful for the treatment of septic shock.
(§1) CD39 knockout (KO) mice and their wild-type littermates were developed according to established methods and were backcrossed 6-8 times to a C57BL/6J background (Enjyoji, et al. (1999) Nat. Med. 5(9):1010-7). Wild-type and KO littermates were used in this analysis. In some experiments, mice were treated with sodium polyoxotungstate (POM-1, Na6[H2W12O40], 3 mg/kg/h, […], prior to CLP) or apyrase from potatoes (Sigma, 5 U apyrase i.p., prior to CLP).
(§2) Polymicrobial sepsis was induced by subjecting C57BL/6J mice to CLP in accordance with established methods (Németh, et al. (2006) supra; Gallos, et al. (2005) supra; Lee, et al. (2006) supra; Csóka, et al. (2010) supra). After the operation, all mice were resuscitated with 1 ml physiological saline injected s.c. and returned to their cages with free access to food and water.

[3] = tested on: TNF-α; assay: TNF-α level after CLP (ELISA); type: in vivo, mouse; settings: C57BL/6J mice, 16 hours post-CLP, vs. vehicle
Protocol: as §1, §2
(§3) Sixteen hours after the CLP operation (the following day), the mice were reanesthetized with pentobarbital (50 mg/kg i.p.), and blood and peritoneal lavage fluid were harvested. Specifically, after opening the chest of mice, blood samples were obtained aseptically by cardiac puncture using heparinized syringes. […]
(§4) Concentrations of TNF-α and MIP-2 were determined in blood and peritoneal lavage fluid obtained 16 hours after CLP using commercially available ELISA kits (R&D Systems, Minneapolis, Minn.) according to the manufacturer's instructions.

[4] = tested on: MIP-2; assay: MIP-2 level after CLP (ELISA); type: in vivo, mouse; settings: C57BL/6J mice, 16 hours post-CLP, vs. vehicle
Protocol: as §1, §2, §3, §4

| Molecule | inflammatory cytokine levels [1] | organ dysfunction [2] | TNF-α levels [3] | MIP-2 levels [4] |
| --- | --- | --- | --- | --- |
| CCNC(=O)[C@H]1O[C@@H](n2cnc3c(N)ncnc32)[C@H](O)[C@@H]1O [NECA, 5′-(N-ethylcarboxamido)adenosine] | completely reversed the increased cytokine levels | – | – | – |
| apyrase | – | prevents organ dysfunction | decreases plasma cytokine levels; also recorded: decreased the levels | decreases plasma cytokine levels; also recorded: decreased the levels |
| sodium polyoxotungstate [reference compound] | – | – | increased the levels | increased the levels |
